Source: patent US20260199365A1, “BIS-SULFONAMIDE SHIP1 ACTIVATORS” (The Research Foundation for the State University of New York, priority 2022, published 2026)

Tested on: IL-6 production in BV-2 cells
Assay: ELISA quantitation of IL-6 production in BV-2 cells after stimulation with LPS
Assay type: cell-based, murine
Details: 1 h pretreatment with SHIP1 activator 10 μM, then LPS
Procedure: FIG. 3 presents an ELISA quantitation of IL-6 production in BV-2 cells after stimulation with LPS. BV-2 cells were plated and treated for 1 h with vehicle (Veh, 0.25% DMSO) or SHIP1 activator (10 μM in Veh) prior to addition of LPS (100 ng/ml). Unstimulated BV2 cells treated with Veh are shown as an additional control to assess LPS induction of IL-6. (A) Evaluation of 1, 26, 29 and 53. (B) In a separate experiment, 70, and 71 were evaluated under similar conditions. Bars indicate Mean G SEM; statistical tests: two-way ANOVA with Tukey correction, **** p<0.0001, ** p<0.01.
Given this experience, some of the new activators were evaluated in a cell-based setting. Using the immortalized BV-2 cell line, which is derived from murine microglia and retains many microglial morphological and functional characteristics of microglia, an assay for the anti-inflammatory effects of these activators was developed. This assay involved treatment of the cells with lipopolysaccharides (LPS) to induce IL-6 production which can then be quantified with an ELISA.
Cell culture: The BV2 cell line was obtained from the ATCC (American Type Culture Collection). The ATCC and performs genetic validation on deposited cell lines. For the inflammatory cytokines production studies, BV2 cells were cultured in DMEM/F12 (Corning) 10% HI FBS at 37° C. and 5% CO2 in a humidified incubator and split 1:6 every 3 days with Cellstripper™ (Corning). Cells were kept at 37° C. and 5% CO2 in a humidified incubator.
ELISA measurements: Parental (scrambled guide control) BV2 cells were seeded at 5×10^5/mL, […] in 48 well plate. Cell were treated with […] small molecule or vehicle control (0.5% DMSO) and incubated for 1 h before addition of stimuli. LPS (10 ng/ml, E. coli O111: B4, Sigma) was added to the cells and incubated for 6 h to detect IL-6 production. Supernatants were spun down at 400×g for 5 minutes to remove cell debris and froze at −20° C. for ELISAs. IL-6 levels were quantified from cellular supernatants with ELISA MAX™ Standard Set Mouse IL-6 kit (Biolegend), following manufacturer's recommendations. We detected absorbance at 450 nm and removed 570 nm background absorbance, with a plate reader (Synergy 2, BioTek). All experiments were repeated three times and each value was reported as mean±SEM from biological replicates in the same assay. All statistical analysis were performed using GraphPad Prism (version 9.2). Two-way ANOVA was used to analyze all data with two independent variables as time and treatment or concentration and treatment, data is reported as Mean+/−SEM.

Cc1sc(S(=O)(=O)N2CCSCC2)cc1NC(=O)CNS(=O)(=O)c1ccc(F)cc1 [Compound K306, 2-(4-Fluorobenzenesulfonamido)-N-[2-methyl-5-(thiomorpholine-4-sulfonyl)thiophen-3-yl]acetamide]
IL-6 production induced by LPS: significantly diminished
